Experiments:
Assay type in all cases: cell-based
[1] = tested on: E. coli BL21; experiment: MIC against Gram-negative bacteria: E. coli BL21; settings: 5×10^5 CFU/mL; for MIC E. coli BL21: two-fold serial dilution
In short: (§1)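 Antibacterial activity of purified human EGF domain proteins: two-fold concentration series, triplicate wells, LB broth, 5×10^5 CFU/mL bacteria, 37° C shaking incubation. The lowest concentration without growth defines the MIC.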

[2] = tested on: Serratia marcescens; experiment: MIC against Gram-negative bacteria: Serratia marcescens; settings: 5×10^5 CFU/mL; for MIC S. marcescens: two-fold serial dilution
In short: as §1

[3] = tested on: Proteus mirabilis; experiment: MIC against Gram-negative bacteria: Proteus mirabilis; settings: 5×10^5 CFU/mL; for MIC P. mirabilis: two-fold serial dilution
In short: as §1

[4] = tested on: Moraxella catarrhalis; experiment: MIC against Gram-negative bacteria: Moraxella catarrhalis; settings: 5×10^5 CFU/mL; for MIC M. catarrhalis: two-fold serial dilution
In short: as §1

[5] = tested on: Pseudomonas aeruginosa; experiment: MIC against Gram-negative bacteria: Pseudomonas aeruginosa; settings: 5×10^5 CFU/mL; for MIC P. aeruginosa: two-fold serial dilution
In short: as §1

[6] = tested on: Klebsiella pneumonia; experiment: MIC against Gram-negative bacteria: Klebsiella pneumonia; settings: 5×10^5 CFU/mL; for MIC K. pneumonia: two-fold serial dilution
In short: as §1

[7] = tested on: E. coli DH5α; experiment: Antibacterial activity: MIC and growth curve against E. coli DH5α in 96-well plate; settings: minimal inhibitory concentration against E. coli DH5α; 96-well plate, 5×10^5 CFU/mL, 37° C., judged after 8 h
In short: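 Log-phase DH5α (OD600 about 0.5, 37° C, 185 rpm in LB) was pelleted, resuspended in fresh LB and seeded at 5×10^5 CFU/mL with recombinant protein at 50, 25 and 12.5 μg/mL (two-fold series), in triplicate. Plates were shaken at 175 rpm, 37° C, and OD600 was read every 30 min. MIC was the lowest concentration with no growth.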

[8] = tested on: Proteus vulgaris; experiment: MIC against Gram-negative bacteria: Proteus vulgaris; settings: 5×10^5 CFU/mL; for MIC P. vulgaris: two-fold serial dilution
In short: as §1

[9] = tested on: Aeromonas hydrophila; experiment: MIC against Gram-negative bacteria: Aeromonas hydrophila; settings: 5×10^5 CFU/mL; for MIC A. hydrophila: two-fold serial dilution
In short: as §1

[10] = tested on: Citrobacter diversus; experiment: MIC against Gram-negative bacteria: Citrobacter diversus; settings: 5×10^5 CFU/mL; for MIC C. diversus: two-fold serial dilution
In short: as §1

[11] = tested on: Enterobacter cloacae; experiment: MIC against Gram-negative bacteria: Enterobacter cloacae; settings: 5×10^5 CFU/mL; for MIC E. cloacae: two-fold serial dilution
In short: as §1

[12] = E. coli BL21, 10 h cultivation at 37° C.

## PRT1116 (DIDECASRPCHHGATCRNLADRYECHCPLGYAGVTCE; listed as Homo sapiens)
[1]; 10 h cultivation at 37° C.
  MIC E. coli BL21: 12.5 µg/mL
[2]; 10 h cultivation at 37° C.
  MIC S. marcescens: 12.5 µg/mL
[3]; 10 h cultivation at 37° C.
  MIC P. mirabilis: 50 µg/mL
[4]; 10 h cultivation at 37° C.
  MIC M. catarrhalis: 25 µg/mL
[5]; 10 h cultivation at 37° C.
  MIC P. aeruginosa: 25 µg/mL
[6]; 10 h cultivation at 37° C.
  MIC K. pneumonia: 12.5 µg/mL
[7]
  MIC: 25 µg/mL
[8]; 10 h cultivation at 37° C.
  MIC P. vulgaris: 25 µg/mL
[9]; 10 h cultivation at 37° C.
  MIC A. hydrophila: 25 µg/mL
[10]; 10 h cultivation at 37° C.
  MIC C. diversus: 12.5 µg/mL
[11]; 10 h cultivation at 37° C.
  MIC E. cloacae: 25 µg/mL

## PRT1083 (GTNVCAVANGGCQQLCLYRGRGQRACACAHGMLAEDGASCR; listed as Homo sapiens)
[1]; 10 h cultivation at 37° C.
  MIC E. coli BL21: 12.5 µg/mL
[2]; 10 h cultivation at 37° C.
  MIC S. marcescens: 25 µg/mL
[3]; 10 h cultivation at 37° C.
  MIC P. mirabilis: 25 µg/mL
[4]; 10 h cultivation at 37° C.
  MIC M. catarrhalis: 50 µg/mL
[5]; 10 h cultivation at 37° C.
  MIC P. aeruginosa: 50 µg/mL
[6]; 10 h cultivation at 37° C.
  MIC K. pneumonia: 50 µg/mL
[7]
  MIC: 50 µg/mL
[8]; 10 h cultivation at 37° C.
  MIC P. vulgaris: 50 µg/mL
[9]; 10 h cultivation at 37° C.
  MIC A. hydrophila: 25 µg/mL
[10]; 10 h cultivation at 37° C.
  MIC C. diversus: 12.5 µg/mL
[11]; 10 h cultivation at 37° C.
  MIC E. cloacae: 50 µg/mL

## PRT124 (ITDRCSPNMCEHDGRCYQSWDDFICYCELTGYKGETCH; listed as Homo sapiens)
[1]; E. coli BL21, 96-well plate, 37° C., 10 h
  MIC (μg/mL) E. coli BL21: 50 µg/mL
[2]; Serratia marcescens, 96-well plate, 37° C., 10 h
  MIC (μg/mL) S. marcescens: 12.5 µg/mL
[3]; Proteus mirabilis, 96-well plate, 37° C., 10 h
  MIC (μg/mL) P. mirabilis: 12.5 µg/mL
[4]; Moraxella catarrhalis, 96-well plate, 37° C., 10 h
  MIC (μg/mL) M. catarrhalis: 12.5 µg/mL
[5]; Pseudomonas aeruginosa, 96-well plate, 37° C., 10 h
  MIC (μg/mL) P. aeruginosa: 12.5 µg/mL
[6]; Klebsiella pneumonia, 96-well plate, 37° C., 10 h
  MIC (μg/mL) K. pneumonia: 50 µg/mL
[7]
  MIC: 12.5 µg/mL
[8]; Proteus vulgaris, 96-well plate, 37° C., 10 h
  MIC (μg/mL) P. vulgaris: 12.5 µg/mL
[9]; Aeromonas hydrophila, 96-well plate, 37° C., 10 h
  MIC (μg/mL) A. hydrophila: 12.5 µg/mL
[10]; Citrobacter diversus, 96-well plate, 37° C., 10 h
  MIC (μg/mL) C. diversus: 12.5 µg/mL
[11]; Enterobacter cloacae, 96-well plate, 37° C., 10 h
  MIC (μg/mL) E. cloacae: 12.5 µg/mL

## PRT820 (YGDNCRHSCLCQNGGTCDPVSGHCACPEGWAGLACE; listed as Homo sapiens)
[1]; [12]
  MIC (μg/mL) E. coli BL21: 50 µg/mL
[2]; S. marcescens, 10 h cultivation at 37° C.
  MIC (μg/mL) S. marcescens: 25 µg/mL
[3]; P. mirabilis, 10 h cultivation at 37° C.
  MIC (μg/mL) P. mirabilis: 12.5 µg/mL
[4]; M. catarrhalis, 10 h cultivation at 37° C.
  MIC (μg/mL) M. catarrhalis: 50 µg/mL
[5]; P. aeruginosa, 10 h cultivation at 37° C.
  MIC (μg/mL) P. aeruginosa: 12.5 µg/mL
[6]; K. pneumonia, 10 h cultivation at 37° C.
  MIC (μg/mL) K. pneumonia: 50 µg/mL
[7]
  MIC: 12.5 µg/mL
[8]; P. vulgaris, 10 h cultivation at 37° C.
  MIC (μg/mL) P. vulgaris: 12.5 µg/mL
[9]; A. hydrophila, 10 h cultivation at 37° C.
  MIC (μg/mL) A. hydrophila: 50 µg/mL
[10]; C. diversus, 10 h cultivation at 37° C.
  MIC (μg/mL) C. diversus: 12.5 µg/mL
[11]; E. cloacae, 10 h cultivation at 37° C.
  MIC (μg/mL) E. cloacae: 12.5 µg/mL

## PRT519 (CQCNDNLDFSIPGSCDSLSGSCLICKPGTTGRYCELCADGYFGDAVDAKNCQP; listed as Homo sapiens)
[1]; 96-well plate, 37° C., 10 h
  MIC against E. coli BL21: 12.5 µg/mL
[2]; 96-well plate, 37° C., 10 h
  MIC against S. marcescens: 12.5 µg/mL
[3]; 96-well plate, 37° C., 10 h
  MIC against P. mirabilis: 12.5 µg/mL
[4]; 96-well plate, 37° C., 10 h
  MIC against M. catarrhalis: 25 µg/mL
[5]; 96-well plate, 37° C., 10 h
  MIC against P. aeruginosa: 12.5 µg/mL
[6]; 96-well plate, 37° C., 10 h
  MIC against K. pneumonia: 25 µg/mL
[7]
  MIC: 25 µg/mL
[8]; 96-well plate, 37° C., 10 h
  MIC against P. vulgaris: 25 µg/mL
[9]; 96-well plate, 37° C., 10 h
  MIC against A. hydrophila: 25 µg/mL
[10]; 96-well plate, 37° C., 10 h
  MIC against C. diversus: 12.5 µg/mL
[11]; 96-well plate, 37° C., 10 h
  MIC against E. cloacae: 12.5 µg/mL

## PRT1398 (EVDCLDPTCSSHGVCVNGECLCSPGWGGLNCEL; listed as Homo sapiens)
[1]; [12]
  MIC against E. coli BL21: 25 µg/mL
[2]; Serratia marcescens, 10 h cultivation at 37° C.
  MIC against S. marcescens: 12.5 µg/mL
[3]; Proteus mirabilis, 10 h cultivation at 37° C.
  MIC against P. mirabilis: 12.5 µg/mL
[4]; Moraxella catarrhalis, 10 h cultivation at 37° C.
  MIC against M. catarrhalis: 25 µg/mL
[5]; Pseudomonas aeruginosa, 10 h cultivation at 37° C.
  MIC against P. aeruginosa: 12.5 µg/mL
[6]; Klebsiella pneumonia, 10 h cultivation at 37° C.
  MIC against K. pneumonia: 25 µg/mL
[7]
  MIC: 25 µg/mL
[8]; Proteus vulgaris, 10 h cultivation at 37° C.
  MIC against P. vulgaris: 25 µg/mL
[9]; Aeromonas hydrophila, 10 h cultivation at 37° C.
  MIC against A. hydrophila: 25 µg/mL
[10]; Citrobacter diversus, 10 h cultivation at 37° C.
  MIC against C. diversus: 12.5 µg/mL
[11]; Enterobacter cloacae, 10 h cultivation at 37° C.
  MIC against E. cloacae: 50 µg/mL

## PRT502 (CECHGHAAECNVHGVCIACAHNTTGVHCEQCLPGFYGEPSRGTPGDCQP; listed as Homo sapiens)
[1]; 96-well plate, 37° C., 10 h
  MIC against E. coli BL21: 12.5 µg/mL
[2]; 96-well plate, 37° C., 10 h
  MIC against S. marcescens: 25 µg/mL
[3]; 96-well plate, 37° C., 10 h
  MIC against P. mirabilis: 12.5 µg/mL
[4]; 96-well plate, 37° C., 10 h
  MIC against M. catarrhalis: 12.5 µg/mL
[5]; 96-well plate, 37° C., 10 h
  MIC against P. aeruginosa: 12.5 µg/mL
[6]; 96-well plate, 37° C., 10 h
  MIC against K. pneumonia: 12.5 µg/mL
[7]
  MIC: 25 µg/mL
[8]; 96-well plate, 37° C., 10 h
  MIC against P. vulgaris: 50 µg/mL
[9]; 96-well plate, 37° C., 10 h
  MIC against A. hydrophila: 12.5 µg/mL
[10]; 96-well plate, 37° C., 10 h
  MIC against C. diversus: 12.5 µg/mL
[11]; 96-well plate, 37° C., 10 h
  MIC against E. cloacae: 12.5 µg/mL
